Assay results from PMC11109052, “Metabolism characterization and toxicity of N-hydap, a marine candidate drug for lung cancer therapy by LC–MS method” (Natural Products and Bioprospecting, 2024).

How the values were obtained:
UGT1A3 = molecular target: T1, UGT1A3 (Homo sapiens, UniProt P35503); assay: Incubation with recombinant human UGT isoforms: UGT1A3; format: in vitro ADME; conditions: recombinant UGT 2 μg/mL
T1 construct: purchased Cypex (Scotland, UK)
Procedure: (§1) Incubation of N-hydap (2.5 μM) with eight recombinant human CYP enzymes (CYP1A2, CYP2B6, CYP2C9, CYP2C19, CYP2D6, CYP3A4, CYP4A11 and CYP4F2) at three enzyme concentrations (2, 4, and 20 μg/mL) was conducted following the same procedure as described above for microsomes. Subsequently, incubation with N-hydap (1, 2.5, and 6 μM) and twelve recombinant human UGT isoforms (UGT1A1, UGT1A3, UGT1A4, UGT1A6, UGT1A7, UGT1A8, UGT1A9, UGT1A10, UGT2B4, UGT2B7, UGT2B15 and UGT2B17) was performed, with the enzyme concentration used at 2 μg/mL. All reactions were carried out in triplicate.

HLMs = assay: Kinetics of N-hydap glucuronidation in HLMs; format: in vitro ADME, human; conditions: HLM
Procedure: Various microsomes including HLMs, HKMs, HIMs, RLMs, RKMs, MLMs and MKMs were involved in CYP and UGT reactions of N-hydap. A typical CYP incubation mixture included 0.5 mg/mL microsomes protein, 3.3 mM glucose-6-phosphate, 3.3 mM MgCl2, 0.4 U/mL glucose-6-phosphate dehydrogenase, and N-hydap (1, 2.5, or 10 μM) in the 50 mM potassium phosphate buffer (KPI, pH 7.4). The incubation mixture was preincubated at 37 °C for 5 min, and the reaction was started by adding NADP to form a NADPH-regenerating system. Simultaneously, the classic UGT reaction system consisted of 50 mM KPI, 5 mM MgCl2, 0.5 mg/mL microsomes, 0.125 mg/mL alamethicin, and 5.25 mg/mL saccharolactone. The reaction was initiated after supplying UDPGA. The CYP and UGT mixtures were incubated at 37 °C in a shaking water bath (80 rpm) for 1.5 h to enhance metabolite formation. To terminate the reaction, an ice-cold solution of Tes (50 ng/mL, dissolved in methanol and used as an internal standard) was added to half of the mixture volume. […]
(§2) The substrate concentrations used for HLMs were 0.05, 0.5, 2, 2.5, 5, 10, 25, 50, and 100 μM. […] The rates of N-hydap-G by enzymes were expressed as nmol/mg/min, representing the amount of metabolites formed per minute per milligram of protein. Kinetic parameters were determined by analyzing the Eadie–Hofstee plots. […]

RLMs = assay: Kinetics of N-hydap glucuronidation in RLMs; format: in vitro ADME, rat; conditions: RLM
Procedure: In this study, the rats were executed by drawing blood from the abdominal aorta and mice were sacrificed with cervical dislocation before the liver and kidneys were excised. The liver and kidneys were removed, and washed with chilled cleansing solution (contains 8 mM KH2PO4, 5.6 mM EDTA·K2·2H2O, 1 mM DTT and 229.6 μM PMSF), homogenized in a tissue homogenate buffer with a pH of 7.4, (consisting of […], 8 mM K2HPO4, 250 mM sucrose, 1 mM EDTA·K2·2H2O and 229.6 μM PMSF). Subsequently, the homogenate was centrifuged at 10,400 rpm at 4 °C for 15 min, and the supernatant was then centrifuged at 35,000 rpm at 4 °C for 60 min. A 250 mM sucrose buffer was added to the pellet to reconstitute and the resuspension was stored at − 80 °C until use. Microsome protein concentrations were measured by Omni-Easy™ Instant BCA Protein Assay Kit.
Various microsomes including HLMs, HKMs, HIMs, RLMs, RKMs, MLMs and MKMs were involved in CYP and UGT reactions of N-hydap. […]
as §2

[1] = molecular target: T2, recombinant human CYP enzymes (CYP1A2, CYP2B6, CYP2C9, CYP2C19, CYP2D6, CYP3A4, CYP4A11 and CYP4F2) (Homo sapiens, UniProt P08684); assay: Incubation with 8 recombinant human CYP enzymes; format: in vitro ADME; conditions: Table 4 experimental column
T2 construct: purchased Cypex (Scotland, UK)
T2 sequence (P08684 whole entry): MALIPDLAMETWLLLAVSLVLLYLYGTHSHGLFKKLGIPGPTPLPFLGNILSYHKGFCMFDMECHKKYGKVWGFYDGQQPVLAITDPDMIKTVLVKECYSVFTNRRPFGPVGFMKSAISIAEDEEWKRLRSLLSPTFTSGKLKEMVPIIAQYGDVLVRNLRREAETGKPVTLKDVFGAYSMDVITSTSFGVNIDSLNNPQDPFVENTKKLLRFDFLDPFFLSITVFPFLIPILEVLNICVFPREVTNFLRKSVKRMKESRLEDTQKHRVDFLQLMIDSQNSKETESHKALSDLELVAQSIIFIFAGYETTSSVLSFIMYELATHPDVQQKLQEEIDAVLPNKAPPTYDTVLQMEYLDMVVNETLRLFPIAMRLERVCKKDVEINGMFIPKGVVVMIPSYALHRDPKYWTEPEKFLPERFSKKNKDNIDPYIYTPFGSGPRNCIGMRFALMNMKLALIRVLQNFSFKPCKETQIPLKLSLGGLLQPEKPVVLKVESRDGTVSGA
Procedure: as §1

[2] = molecular target: T3, recombinant human CYP enzymes (CYP1A2, CYP2B6, CYP2C9, CYP2C19, CYP2D6, CYP3A4, CYP4A11 and CYP4F2) (Homo sapiens, UniProt P05177); assay: Incubation with 8 recombinant human CYP enzymes; format: in vitro ADME; conditions: Table 4 experimental column
T3 construct: purchased Cypex (Scotland, UK)
T3 sequence (P05177 whole entry): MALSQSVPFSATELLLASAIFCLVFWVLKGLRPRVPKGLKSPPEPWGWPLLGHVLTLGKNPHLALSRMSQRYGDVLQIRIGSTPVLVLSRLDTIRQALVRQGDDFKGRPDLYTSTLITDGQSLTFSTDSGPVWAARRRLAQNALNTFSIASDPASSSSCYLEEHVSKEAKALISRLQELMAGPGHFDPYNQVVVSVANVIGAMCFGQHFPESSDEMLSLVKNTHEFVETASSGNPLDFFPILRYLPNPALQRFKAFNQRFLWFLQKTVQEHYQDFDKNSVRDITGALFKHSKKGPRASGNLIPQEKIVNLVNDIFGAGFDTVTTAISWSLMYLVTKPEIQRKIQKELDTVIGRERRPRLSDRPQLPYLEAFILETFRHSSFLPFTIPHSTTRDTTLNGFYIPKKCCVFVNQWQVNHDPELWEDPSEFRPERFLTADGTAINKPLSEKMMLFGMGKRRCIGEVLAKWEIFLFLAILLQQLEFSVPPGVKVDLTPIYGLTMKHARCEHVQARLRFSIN
Procedure: as §1

[3] = system: recombinant human CYP enzymes (CYP1A2, CYP2B6, CYP2C9, CYP2C19, CYP2D6, CYP3A4, CYP4A11 and CYP4F2); assay: Incubation with 8 recombinant human CYP enzymes; format: in vitro ADME; conditions: N-hydap 2.5 μM; enzyme concentrations of 2 and 4 μg/mL; all recombinant CYPs
Procedure: as §1

[4] = molecular target: T4, recombinant human CYP enzymes (CYP1A2, CYP2B6, CYP2C9, CYP2C19, CYP2D6, CYP3A4, CYP4A11 and CYP4F2) (Homo sapiens, UniProt P11712); assay: Incubation with 8 recombinant human CYP enzymes; format: in vitro ADME; conditions: Table 4 experimental column
T4 construct: purchased Cypex (Scotland, UK)
T4 sequence (P11712 whole entry): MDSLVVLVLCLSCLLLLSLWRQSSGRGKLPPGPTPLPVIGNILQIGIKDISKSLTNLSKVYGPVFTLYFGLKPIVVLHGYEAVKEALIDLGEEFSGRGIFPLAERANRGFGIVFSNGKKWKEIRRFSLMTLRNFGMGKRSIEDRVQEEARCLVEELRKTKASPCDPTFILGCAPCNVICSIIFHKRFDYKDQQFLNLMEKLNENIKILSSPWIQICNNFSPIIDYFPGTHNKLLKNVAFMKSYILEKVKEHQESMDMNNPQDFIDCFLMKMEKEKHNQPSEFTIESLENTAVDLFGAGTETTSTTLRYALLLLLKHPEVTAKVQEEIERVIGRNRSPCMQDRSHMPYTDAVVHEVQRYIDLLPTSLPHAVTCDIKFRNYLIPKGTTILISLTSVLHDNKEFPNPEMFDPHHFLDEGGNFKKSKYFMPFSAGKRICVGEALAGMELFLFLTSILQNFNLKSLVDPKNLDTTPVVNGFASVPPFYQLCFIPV
Procedure: as §1

T1 sequence (P35503 29-534): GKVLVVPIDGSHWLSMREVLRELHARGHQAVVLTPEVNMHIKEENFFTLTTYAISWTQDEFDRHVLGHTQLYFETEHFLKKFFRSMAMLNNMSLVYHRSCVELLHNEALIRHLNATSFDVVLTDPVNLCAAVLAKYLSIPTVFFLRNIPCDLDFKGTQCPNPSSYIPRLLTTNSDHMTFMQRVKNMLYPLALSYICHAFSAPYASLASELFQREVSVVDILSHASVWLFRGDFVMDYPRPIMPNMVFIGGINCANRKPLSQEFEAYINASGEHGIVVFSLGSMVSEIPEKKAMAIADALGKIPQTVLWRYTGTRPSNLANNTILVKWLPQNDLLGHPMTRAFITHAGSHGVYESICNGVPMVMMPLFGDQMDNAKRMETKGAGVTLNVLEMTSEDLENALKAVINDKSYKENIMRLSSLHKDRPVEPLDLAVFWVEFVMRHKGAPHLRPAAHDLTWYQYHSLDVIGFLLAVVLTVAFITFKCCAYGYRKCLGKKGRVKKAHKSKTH

Compound: CC1CCC2C(C=CC(C)C2C(=O)c2c(O)c(C3(O)CCC(O)C4OC43)cn(O)c2=O)C1 (stereo not shown) [N-hydap, N-Hydroxyapiosporamide]
- share of N-hydap glucuronidation by UGT1A3 (UGT1A3): over 80%
- Km (HLMs): 116 µM
- Km (RLMs): 0.357 µM
- CYP3A4 substrate, experimental results [1]: Yes
- CYP1A2 substrate, experimental results [2]: Yes
- prototype elimination rate [3]: less than 25%
- CYP2C9 substrate, experimental results [4]: Yes
